Measured values as given in article PMC6494957 (Frontiers in Microbiology, 2019).
Converted amounts (≈) assume the structure as drawn. Positions of bridges follow the written chain, without caps; N, C: chain ends. Non-standard residues stand in square brackets, D forms with d. Residues, ends and D or L forms follow the SMILES beside them. Dab = NCC[C@H](N)C(=O)O

Assays:
[1] = test system: Beta-haemolytic streptococci (n = 20) clinical isolates from otitis externa cases in dogs; test: MIC/MBC and checkerboard, canine otitis externa isolates; assay type: cell-based, beta-haemolytic Streptococcus spp.; settings: canine otitis externa; for MIC50 / MIC90: Streptococcus; for MIC50: read-out: MIC50, single drug; for MIC90: read-out: MIC90, single drug
Excerpt: (§1) Escherichia coli ATCC 25922, E. coli ATCC 11229, P. aeruginosa ATCC 27853, P. aeruginosa PA01, Pseudomonas putida ATCC 17428, P. mirabilis ATCC 43071, K. pneumoniae ATCC 13883, A. baumannii ATCC 19606, and A. baumannii ATCC 12457 were used for preliminary susceptibility testing and combination experiments. S. aureus ATCC 29213 and S. pneumoniae ATCC 49619 were used as internal quality controls. A variety of bacterial organisms from both human and canine infections were investigated in this study (n = 119 isolates in total). Twenty-eight clinical Acinetobacter spp. isolates were obtained from cases of human skin and soft tissue infections, including 18 Acinetobacter baumannii and 10 A. calcoaceticus, kindly provided by a person (Institute of Medical and Veterinary Science, South Australia). […] Ninety-one clinical isolates were obtained from cases of canine otitis externa, including seven methicillin-susceptible S. pseudintermedius (MSSP), 13 multidrug- and methicillin-resistant S. pseudintermedius (MRSP) ([Saputra et al., 2017]), 20 beta-haemolytic Streptococcus spp., 30 P. aeruginosa (10 of them resistant to gentamicin and 21 P. mirabilis isolates). These isolates were obtained from the bacterial collection of the national survey of antimicrobial resistance in animals conducted in Australia. Swab samples from dogs with signs of otitis externa were collected by veterinarians and submitted to government, private or university diagnostic laboratories throughout Australia. After routine bacterial identification and the removal of confidential information, the participating veterinary diagnostic laboratories submitted the bacteria and their clinical information to PC2 Laboratories, Australian Centre for Antimicrobial Resistance Ecology, School of Animal and Veterinary Sciences, University of Adelaide, Roseworthy Campus, Roseworthy, SA, Australia, for further study. Thus, animal ethics approval was not required in this study. These organisms were identified to species level using biochemical testing and MALDI-TOF mass spectrometry (Bruker, Preston, VIC, Australia).
(§2) The MIC for ampicillin or gentamicin against each isolate was determined for each test to serve as an internal quality control. The MICs of isolates were determined by visual reading and using an EnSpire Multimode Plate Reader 2300 atA600nm.
(§3) Briefly, 10 μl aliquots from each duplicate well from the MIC assays (starting from the MIC for each compound) were inoculated onto a sheep blood agar (SBA) plate and incubated at 37°C.
(§4) Briefly, antimicrobial stock solutions for robenidine and PMBN were prepared at a concentration of 12.8 mg/ml in DMSO. […] A 1 μl aliquot of the first compound from each combination was dispensed along the abscissa (from row A to G) of the 96-well microplate, while the second compound was dispensed along the ordinate (from column 12 to column 3) using an electronic multichannel pipette followed by 89 μl of LB broth. Each well of the plate was inoculated with an aliquot of 10 μl bacterial suspension at a concentration of 1-5 × 10^6 colony forming units (CFU) per ml. Subsequently, the plate was incubated at 37°C for 24 h. The fractional inhibitory concentration index (FICI) described the results of the combinations, and was calculated utilizing the following formula:
(§5) DRI = MIC of drug alone/MIC of drug in combination

[2] = test system: E. coli ATCC 25922; test: microbe, parasite or virus in culture; settings: for MIC: Escherichia coli, ATCC25922, read-out: MIC, single drug
Experimental: as §2, §4, §5

[3] = test system: S. aureus ATCC 29213; test: MIC broth microdilution, quality control strain; assay type: cell-based; settings: Staphylococcus aureus, ATCC29213; S. aureus ATCC 29213, quality control strain
Experimental: (§6) Luria Bertani (LB) broth (Oxoid, Australia) was applied for MIC testing in lieu of cation-adjusted Mueller–Hinton broth as robenidine has been previously shown to chelate calcium ions. Furthermore, a twofold serial dilution of robenidine was performed in 100% DMSO, with 1 μl dispensed to each well due to the hydrophobicity of the compound ([Abraham et al., 2016]). The MIC for ampicillin or gentamicin against each isolate was determined for each test to serve as an internal quality control. The MICs of isolates were determined by visual reading and using an EnSpire Multimode Plate Reader 2300 atA600nm.

[4] = test system: S. pneumoniae ATCC 49619; test: MIC broth microdilution, quality control strain; assay type: cell-based; settings: Streptococcus pneumoniae, ATCC49619; S. pneumoniae ATCC 49619, quality control strain
Experimental: as §6

[5] = test system: S. pseudintermedius (n = 20) clinical isolates from otitis externa cases in dogs; test: MIC/MBC and checkerboard, canine otitis externa isolates; assay type: cell-based, Staphylococcus pseudintermedius; settings: canine otitis externa; for MIC50 / MIC90: Staphylococcus pseudintermedius; for MIC50: read-out: MIC50, single drug; for MIC90: read-out: MIC90, single drug
Excerpt: as §1, §2, §3, §4, §5

[6] = test system: P. aeruginosa (n = 30) clinical isolates from otitis externa cases in dogs; test: as above; assay type: cell-based, Pseudomonas aeruginosa; settings: canine otitis externa; for MIC50 / MIC90: Pseudomonas aeruginosa; for MIC50: read-out: MIC50, single drug; for MIC90: read-out: MIC90, single drug
Excerpt: as §1, §2, §3, §4, §5

[7] = test system: P. aeruginosa ATCC 27853; test: microbe, parasite or virus in culture; settings: for MIC: Pseudomonas aeruginosa, ATCC27853, read-out: MIC, single drug
Experimental: as §2, §4, §5

[8] = test system: P. mirabilis (n = 21) clinical isolates from otitis externa cases in dogs; test: MIC/MBC and checkerboard, canine otitis externa isolates; assay type: cell-based, Proteus mirabilis; settings: canine otitis externa; for MIC50 / MIC90: Proteus mirabilis; for MIC50: read-out: MIC50, single drug; for MIC90: read-out: MIC90, single drug
Excerpt: as §1, §2, §3, §4, §5

[9] = test system: all the cell lines tested (HaCaT, HEK 293, MDCK); test: cells; settings: 24 h
Experimental: Cells were maintained in Dulbecco’s modified Eagle’s medium (DMEM) with 10% fetal bovine serum (FBS) and 1% PenStrep (100 U/mL Penicillin and 100 μg/mL Streptomycin) at 37°C with 5% CO2. Cells were serially passaged at ∼80% confluence ∼ every 4 days. Assays were performed in duplicate in 96 well plates seeded with ∼25,000 cells per well. […] Briefly, the antimicrobials were prepared by performing a twofold serial dilution at 100× of tested concentration in DMSO. Subsequently, a 1 μl aliquot of each concentration was transferred to a sterile 96-well plate containing fresh DMEM with either 10% FBS. After mixing four times, the media aliquots with different concentrations of antimicrobial were transferred to each well of the 96-well plate seeded with cells, using wells containing 1–2% DMSO only as control. To determine the effect of FBS on the cytotoxicity of each compound, DMEM with 40% FBS containing different concentrations of antimicrobial was prepared as described above. After 24 h of exposure, WST-1 reagent (Cell Proliferation Assay reagent, Roche) at a concentration of 10% was added to each well. Absorbance at A450 nm on a Multiskan Ascent 354 Spectrophotometer (Labsystems) was measured after 1 h of incubation. The IC50 value was determined for each compound against each cell line via non-linear regression (three parameters) using GraphPad Prism v6 software.

[10] = test system: Gram-negative control strains; test: Checkerboard, summary over Gram-negative strains; assay type: cell-based; settings: in combination with robenidine; for P. aeruginosa
Experimental: as §4, §5

[11] = test system: E. coli ATCC 11229; test: microbe, parasite or virus in culture
Experimental: as §2, §4, §5

[12] = test system: A. baumannii ATCC 12457; test: microbe, parasite or virus in culture
Experimental: as §2, §4, §5

[13] = test system: P. putida ATCC 17428; test: microbe, parasite or virus in culture
Experimental: as §2, §4, §5

[14] = test system: K. pneumoniae ATCC 13883; test: microbe, parasite or virus in culture
Experimental: as §2, §4, §5

[15] = test system: A. calcoaceticus (human clinical isolate); test: microbe, parasite or virus in culture
Experimental: as §2, §4, §5

[16] = test system: P. mirabilis ATCC 43071; test: microbe, parasite or virus in culture; settings: ATCC 43071, 24 h
Experimental: as §2, §4, §5

[17] = test system: A. baumannii ATCC 19606; test: microbe, parasite or virus in culture
Experimental: as §2, §4, §5

MIC [2] [µg/mL]	MIC [3] [µg/mL]	MIC50 [5] [µg/mL]	MIC90 [5] [µg/mL]	MIC range, single drug [5] [µg/mL]	MIC50 [6] [µg/mL]	MIC90 [6] [µg/mL]	MIC range, single drug [6] [µg/mL]	MIC [7] [µg/mL]	MIC50 [8] [µg/mL]	MIC90 [8] [µg/mL]	SMILES	MIC50 [1] [µg/mL]	MIC90 [1] [µg/mL]	MIC range, single drug [1] [µg/mL]	also measured
4	1 (≈ 2.86 µM)	0.125	8	0.03 to 32	–	–	–	–	–	–	CC1(C)S[C@@H]2[C@H](NC(=O)[C@H](N)c3ccccc3)C(=O)N2[C@H]1C(=O)O [Ampicillin, ampicillin]	0.125	0.25	0.06 to 0.5	MIC [4]: 0.125 µg/mL (≈ 0.358 µM)
8	4 (≈ 7.41 µM)	8	16	1 to 16	32	64	16 to 64	16	32	64	CN[C@@H]1[C@@H](O[C@H]2O[C@H](CO)[C@@H](N)[C@H](O)[C@H]2O)OC2C[C@@H](N)[C@@H](O[C@H]3[C@H](O)[C@@H](O)[C@H](N)C[C@@H]3N)OC2[C@@H]1O (stereo partly drawn) [Apramycin, apramycin]	64	128	4 to 128	MIC range, single drug [8]: 16 to 64 µg/mL
0.5	0.5 (≈ 1.05 µM)	2	2	1 to 64	32	64	0.25 to 64	2	8	32	CNC(C)C1CCC(N)C(OC2C(N)CC(N)C(OC3OCC(C)(O)C(NC)C3O)C2O)O1 (stereo not drawn) [Gentamicin, gentamicin]	8	8	8 to 16	–
–	–	–	–	–	–	–	–	–	–	–	CC(C)C[C@@H]1NC(=O)[C@@H](Cc2ccccc2)NC(=O)[C@H](CCN)NC(=O)[C@@H](NC(=O)[C@H](CCN)NC(=O)[C@@H](N)[C@@H](C)O)CCNC(=O)[C@H]([C@@H](C)O)NC(=O)[C@H](CCN)NC(=O)[C@H](CCN)NC1=O [PMBN, polymyxin B nonapeptide] (H-T[Dab][Dab][Dab][dF]L[Dab][Dab]T; lactam 3-C; N-terminus assumed)	–	–	–	IC50 [9]: > 32 µg/mL; fold reduction of the MIC of PMBN [10]: 4- to 64 fold; MIC, single drug ([11]; ATCC 11229, 24 h): >32 µg/mL; MIC in combination PMBN:ROB ([11]; E. coli ATCC 11229, concentration of the labelled component): 6 µg/mL; MIC in combination PMBN:ROB ([12]; A. baumannii ATCC 12457, concentration of the labelled component): 1 µg/mL; MIC, single drug ([12]; ATCC 12457, 24 h): >32 µg/mL; MIC, single drug ([13]; ATCC 17428, 24 h): 4 µg/mL; MIC in combination PMBN:ROB ([13]; P. putida ATCC 17428, concentration of the labelled component): 1:1 μg/ml; MIC, single drug ([2]; ATCC 25922, 24 h): >32 µg/mL; MIC in combination PMBN:ROB ([2]; E. coli ATCC 25922, concentration of the labelled component): 6 µg/mL; MIC, single drug ([14]; ATCC 13883, 24 h): >32 µg/mL; MIC in combination PMBN:ROB ([14]; K. pneumoniae ATCC 13883, concentration of the labelled component): 0.5 µg/mL; MIC, single drug ([15]; 24 h): >32 µg/mL; MIC in combination PMBN:ROB ([15]; A. calcoaceticus human clinical isolate, concentration of the labelled component): 1.5 µg/mL; MIC, single drug ([7]; ATCC 27853, 24 h): 2 µg/mL; MIC in combination PMBN:ROB ([7]; P. aeruginosa ATCC 27853, concentration of the labelled component): 0.75 µg/mL; MIC, single drug [16]: >32 µg/mL; MIC in combination PMBN:ROB ([17]; A. baumannii ATCC 19606, concentration of the labelled component): 1 µg/mL; MIC, single drug ([17]; ATCC 19606, 24 h): >32 µg/mL
